Experimental findings from patent publication US20090197856A1, “ANTIVIRAL COMPOUNDS” (Genelabs Technologies, Inc., priority 2007, published 2009) are described below.

pIC50: −log10 of the molar value. Read-outs that look alike come from different tables or passages of the source.

For the experiment, the target named is T1, HCV-NS5b (Hepatitis C virus genotype 1b, UniProt Q9WMX2).
T1 construct: (His)6 (C); made in house; host or cells: XL-1 cells (E. coli), IPTG-inducible plasmid
Nature of the experiment: HCV-NS5b enzyme assay using homopolymer substrate. The class given is biochemical. From the text:
The coding sequence of NS5b protein was cloned by PCR from pFKI389luc/NS3-3′/ET as described by Lohmann, V., et al. (1999) Science 285, 110-113 using the primers shown on page 266 of WO 2005/012288
The cloned fragment is missing the C terminus 21 amino acid residues. The cloned fragment was inserted into an IPTG-inducible (isopropyl-β-D-thiogalactopyranoside) expression plasmid that provides an epitope tag (His)6 at the carboxy terminus of the protein.
The recombinant enzyme was expressed in XL-1 cells and after induction of expression, the protein was purified using affinity chromatography on a nickel-NTA (nitrilotriacetic acid) column. Storage condition was 10 mM Tris-HCl pH 7.5, 50 mM NaCl, 0.1 mM EDTA (ethylenediaminetetraacetic acid), 1 mM DTT (dithiothreotol), 20% glycerol at −20° C.
The polymerase activity was assayed by measuring incorporation of radiolabeled UTP into a RNA product using a biotinylated, homopolymeric template. The template was formed by annealing adenosine homopolymer to uridine 20-mer capped with a 5′-biotin group (biotin-U^20) in the ratio of 1:4. Typically, the assay mixture (50 μL) contained 25 mM Tris-HCl (pH 7.5), 40 mM KCl, 0.3 mM MgCl2, 0.05 mM EDTA, 0.2 unit/μL Superase RNAse Inhibitor, 5 mM DTT, 30 μM UTP (Uridine triphosphate), including [^3H]-UTP (uridine triphosphate) at 0.4 μCi/μL with final concentration of 1 μM, and 50 nM of homopolymeric template. Test compounds were initially dissolved in 100% DMSO and further diluted in aqueous buffer containing 5% DMSO. Typically, compounds were tested at concentrations between 2 nM and 50 μM. Reactions were started with addition of enzyme and allowed to continue at 30° C. for 90 minutes. Reactions were quenched with 8 μL of 100 mM EDTA and reaction mixtures (30 μL) were transferred to streptavidin-coated scintillation proximity microtiter plates (FlashPlates) and incubated at room temperature overnight. Incorporation of radioactivity was determined by scintillation counting.
Inhibitor IC50 values were determined by adding test compound as ten point, two-fold serial dilutions in 100% DMSO with a final reaction concentration of 5%. IC50 was calculated by plotting the % inhibition against compound concentration and fitting the data to a constrained four parameter sigmoidal curve, equivalent to the “four parameter logistic equation”:
Where Bottom is the minimum Y value, Top is the maximum Y value, and Hillslope is the slope of the linear portion of the semi-log curve. Top and Bottom were constrained to values of 0% and 100%, respectively. These analyses were performed using Graphpad Prism v.4.0 (Graphpad Software, Inc.) in conjunction with DS Accord for EXCEL 6.0 (Accelrys, Microsoft Corp.).
The table below lists the IC50 values of compounds determined using the homopolymer substrates.

The mark [1] stands for this setting: homopolymer substrate, [3H]-UTP incorporation, 30° C., 90 minutes, read-out: IC50.

In the case of `COCCN(CCOC)Cc1cn2c3c(cccc13)-c1c(C3CCCCC3)c3ccc(C(=O)O)cc3n1CCC2` [Compound 362], the pIC50 (commonly the IC50 on a negative log10 scale, so that one unit is a factor of ten) under setting [1] was 6.47.
For the compound `O=C(O)c1ccc2c(C3CCCCC3)c3n(c2c1)CCCn1cc(CN(CCO)CCO)c2cccc-3c21` [Compound 363], under setting [1], the pIC50 was 6.91.
As to `CC1CCC(NCc2cn3c4c(cccc24)-c2c(C4CCCCC4)c4ccc(C(=O)O)cc4n2CCC3)CC1` (centres unmarked) [Compound 364], the pIC50 under setting [1] is 6.56.
With `CC(=O)N1CCN(Cc2cn3c4c(cccc24)-c2c(C4CCCCC4)c4ccc(C(=O)O)cc4n2CCC3)CC1` [Compound 365], the pIC50 under setting [1] was 7.06.
Same read-out and setting: with `CCCNCc1cn2c3c(cccc13)-c1c(C3CCCCC3)c3ccc(C(=O)O)cc3n1CCC2` [Compound 366] the figure was 6.92.
Still for that read-out and setting: with `CC(C)CNCc1cn2c3c(cccc13)-c1c(C3CCCCC3)c3ccc(C(=O)O)cc3n1CCC2` [Compound 367] the figure was 6.80; with `CN(C)CCNCc1cn2c3c(cccc13)-c1c(C3CCCCC3)c3ccc(C(=O)O)cc3n1CCC2` [Compound 368], 6.52; with `CN(C)C(=O)CNCc1cn2c3c(cccc13)-c1c(C3CCCCC3)c3ccc(C(=O)O)cc3n1CCC2` [Compound 369], 6.77.
With `O=C(O)c1ccc2c(C3CCCCC3)c3n(c2c1)CCCn1cc(CNC2CCCOC2)c2cccc-3c21` (centres unmarked) [Compound 370], the pIC50 under setting [1] was 7.03.
For the compound `O=C(O)c1ccc2c(C3CCCCC3)c3n(c2c1)CCCn1cc(CNC2CCCC2)c2cccc-3c21` [Compound 371], the pIC50 under setting [1] is 6.96.
Same read-out and setting: with `CNCc1cn2c3c(cccc13)-c1c(C3CCCCC3)c3ccc(C(=O)O)cc3n1CCC2` [Compound 372] the figure was 6.97; with `CS(=O)(=O)NC(=O)c1ccc2c(C3CCCCC3)c3n(c2c1)CCCn1cc(CN2CCCCC2)c2cccc-3c21` [Compound 373], 6.82.
Still for that read-out and setting: with `O=C(NC1CC1)c1ccc2c(C3CCCCC3)c3n(c2c1)CCCn1cc(CN2CCCCC2)c2cccc-3c21` [Compound 374] the figure was 6.44; with `CN(C)S(=O)(=O)NC(=O)c1ccc2c(C3CCCCC3)c3n(c2c1)CCCn1cc(CN2CCCCC2)c2cccc-3c21` [Compound 375], 6.75; with `CCN(C)Cc1cn2c3c(cccc13)-c1c(C3CCCCC3)c3ccc(C(=O)OC)cc3n1CCC2` [Compound 376], 6.19.
Still for that read-out and setting: with `O=C(O)c1ccc2c(C3CCCCC3)c3n(c2c1)CCCn1cc(CNC2CCCCC2)c2cccc-3c21` [Compound 378] the figure was 6.70; with `CCC(C)NCc1cn2c3c(cccc13)-c1c(C3CCCCC3)c3ccc(C(=O)O)cc3n1CCC2` (centres unmarked) [Compound 379], 6.93.
`O=C(O)CNCc1cn2c3c(cccc13)-c1c(C3CCCCC3)c3ccc(C(=O)O)cc3n1CCC2` [Compound 380]: the pIC50 under setting [1] was 7.03.
Take `COCCNCc1cn2c3c(cccc13)-c1c(C3CCCCC3)c3ccc(C(=O)O)cc3n1CCC2` [Compound 381]: under setting [1], the pIC50 is 6.93.
The same measure, in the same setting: with `CC1CCC(C)N1Cc1cn2c3c(cccc13)-c1c(C3CCCCC3)c3ccc(C(=O)O)cc3n1CCC2` (centres unmarked) [Compound 382] the figure was 6.85.
Same read-out and setting: with `O=C(O)c1ccc2c(C3CCCCC3)c3n(c2c1)CCCn1cc(CNC2CCC2)c2cccc-3c21` [Compound 383] the figure was 7.07; with `O=C(O)c1ccc2c(C3CCCCC3)c3n(c2c1)CCCn1cc(CN[C@H]2CC[C@H](O)CC2)c2cccc-3c21` [Compound 384], 7.19; with `O=C(O)c1ccc2c(C3CCCCC3)c3n(c2c1)CCCn1cc(CN2CCC(O)CC2)c2cccc-3c21` [Compound 385], 6.88.
Same read-out and setting: with `O=C(O)c1ccc2c(C3CCCCC3)c3n(c2c1)CCCn1cc(CNCc2cccnc2)c2cccc-3c21` [Compound 386] the figure was 6.71; with `CON(C)Cc1cn2c3c(cccc13)-c1c(C3CCCCC3)c3ccc(C(=O)O)cc3n1CCC2` [Compound 387], 6.74.
For the compound `O=C(O)c1ccc2c(C3CCCCC3)c3n(c2c1)CCCn1cc(CNCCO)c2cccc-3c21` [Compound 388], the pIC50 under setting [1] is 6.80.
On the same count and under the same terms, then `O=C(O)c1ccc2c(C3CCCCC3)c3n(c2c1)CCCn1cc(CN2CCC(O)C2)c2cccc-3c21` (centres unmarked) [Compound 390], with 6.63; and `CS(=O)(=O)CCNCc1cn2c3c(cccc13)-c1c(C3CCCCC3)c3ccc(C(=O)O)cc3n1CCC2` [Compound 391], with 6.68; and `C[C@@H]1CC[C@@H](C)N1Cc1cn2c3c(cccc13)-c1c(C3CCCCC3)c3ccc(C(=O)O)cc3n1CCC2` [Compound 392], with 6.98.
Same read-out and setting: then `CCC(C)(C)NCc1cn2c3c(cccc13)-c1c(C3CCCCC3)c3ccc(C(=O)O)cc3n1CCC2` [Compound 393], with 6.86; and `O=C(O)c1ccc2c(C3CCCCC3)c3n(c2c1)CCCn1cc(CN2CCS(=O)(=O)CC2)c2cccc-3c21` [Compound 394], with 6.80.
Same read-out and setting: with `NCc1cn2c3c(cccc13)-c1c(C3CCCCC3)c3ccc(C(=O)O)cc3n1CCC2` [Compound 395] the figure was 6.85; with `CC1Cn2cc(CN3CCCCC3)c3cccc(c32)-c2c(C3CCCCC3)c3ccc(C(=O)O)cc3n2C1` (centres unmarked) [Compound 396], 6.90.
Consider `O=C(O)c1ccc2c(C3CCCCC3)c3n(c2c1)CCCn1cc(C2=CCNCC2)c2cccc-3c21` [Compound 397], for which the pIC50 is 6.66.
In the case of `O=C(O)c1ccc2c(C3CCCCC3)c3n(c2c1)CCCn1cc(C2CCNCC2)c2cccc-3c21` [Compound 398], the pIC50 under setting [1] was 6.69.
On the same count and under the same terms, with `CN1CCC(c2cn3c4c(cccc24)-c2c(C4CCCCC4)c4ccc(C(=O)O)cc4n2CCC3)CC1` [Compound 399] the figure was 6.66; with `CC(C)N1CCC(c2cn3c4c(cccc24)-c2c(C4CCCCC4)c4ccc(C(=O)O)cc4n2CCC3)CC1` [Compound 400], 6.60.
Take `O=C(O)c1ccc2c(C3CCCCC3)c3n(c2c1)CCCn1cc(C2CCN(CCO)CC2)c2cccc-3c21` [Compound 401]: under setting [1], the pIC50 is 6.85.
`CC(=O)c1cn2c3c(cccc13)-c1c(C3CCCCC3)c3ccc(C(=O)O)cc3n1CCC2` [Compound 402] had a pIC50 of 6.77.
`CCC1CN2CCCn3c(c(C4CCCCC4)c4ccc(C(=O)O)cc43)-c3cccc1c32` (centres unmarked) [Compound 403]: the pIC50 under setting [1] was 6.68.
Still for that read-out and setting: then `O=C(O)c1ccc2c(C3CCCCC3)c3n(c2c1)CCCn1c(C(=O)NCCN2CCCCC2)cc2cccc-3c21` [Compound 404], with 6.59; and `CN(C)C(=O)c1cc2cccc3c2n1CCCn1c-3c(C2CCCCC2)c2ccc(C(=O)O)cc21` [Compound 405], with 6.86.
Still for that read-out and setting: then `O=C(O)c1ccc2c(C3CCCCC3)c3n(c2c1)CCCn1c(C(=O)N2CCCCC2)cc2cccc-3c21` [Compound 406], with 6.87; and `O=C(O)c1ccc2c(C3CCCCC3)c3n(c2c1)CCCn1c(C(=O)O)cc2cccc-3c21` [Compound 407], with 6.60.
For the compound `CCN(CC)C1CCN(C(=O)c2cc3cccc4c3n2CCCn2c-4c(C3CCCCC3)c3ccc(C(=O)O)cc32)CC1` [Compound 408], the pIC50 under setting [1] is 6.85.
The same measure, in the same setting: with `CN1CCN(C(=O)c2cc3cccc4c3n2CCCn2c-4c(C3CCCCC3)c3ccc(C(=O)O)cc32)CC1` [Compound 409] the figure was 6.94.
In the case of `CCN(C)Cc1c(C(=O)N(C)C)n2c3c(cccc13)-c1c(C3CCCCC3)c3ccc(C(=O)O)cc3n1CCC2` [Compound 410], the negative-log IC50 (pIC50) under setting [1] is 6.42.
Still for that read-out and setting: then `CN(C)Cc1cc2cccc3c2n1CCCn1c-3c(C2CCCCC2)c2ccc(C(=O)O)cc21` [Compound 411], with 6.56; and `CN1CCN(C(=O)c2c(Cl)c3cccc4c3n2CCCn2c-4c(C3CCCCC3)c3ccc(C(=O)O)cc32)CC1` [Compound 412], with 6.75.
Regarding `NC(=O)c1cc2cccc3c2n1CCCn1c-3c(C2CCCCC2)c2ccc(C(=O)O)cc21` [Compound 413], the pIC50 under setting [1] was 6.98.
In the case of `O=C(O)c1ccc2c(C3CCCCC3)c3n(c2c1)CCCn1c(CN2CCCCC2)cc2cccc-3c21` [Compound 414], the pIC50 under setting [1] was 7.01.
On the same count and under the same terms, then `CN1CCN(Cc2cc3cccc4c3n2CCCn2c-4c(C3CCCCC3)c3ccc(C(=O)O)cc32)CC1` [Compound 415], with 6.77.
The same measure, in the same setting: then `O=C(O)c1ccc2c(C3CCCCC3)c3n(c2c1)CCCn1c2c-3cccc2c2c(=O)[nH][nH]c(=O)c21` [Compound 416], with 6.84.
